The source of these data is ChEMBL document CHEMBL3244364, “5,11-dimethyl-2,9-bis(phenylacetyl)-5,11-diazatetracyclo[6.2.2.0(2,7).0(4,9)]dodecane, a potent, novel analgesic” (J Med Chem, 1977).

Data set [1] concerns Rattus norvegicus. The data set is described as follows: Analgesic activity in sc dosed rat assessed as estimated dose to elevate pain reaction threshold to pressure applied to hind paw of to 50 mmHg. Format: functional.
Data set [2] has as its system Rattus norvegicus. The data set is described as follows: Analgesic activity in rat assessed as elevate pain reaction threshold to pressure applied to hind paw of to 50 mmHg at 10 mg/kg, iv. Format: functional, organism-based. More on the design: dose 10 mg/kg.
In data set [3] the test system is Rattus norvegicus. The data set is described as follows: Analgesic activity in rat assessed as elevate pain reaction threshold to pressure applied to hind paw of to 50 mmHg at 5 mg/kg, iv. It counts as functional, organism-based. More on the design: dose 5 mg/kg.
Data set [4] concerns Rattus norvegicus. Briefly: Ratio of morphine ED50 to compound ED50 for analgesic activity in sc dosed rat. It counts as functional.
Data set [5] is filed under the species Rattus norvegicus. Briefly: Toxicity in rat assessed as straub tail. The settings on record: in vivo. It counts as organism-based.
The species named for data set [6] is Rattus norvegicus. Briefly: Toxicity in rat assessed as exopthalmus. Format: organism-based. The settings on record: in vivo.
For data set [7], the species on record is Rattus norvegicus. The data set is described as follows: Toxicity in rat assessed as catatonia. Format: organism-based. The settings on record: in vivo.
Data set [8] concerns Rattus norvegicus. Briefly: Analgesic activity in rat assessed as elevate pain reaction threshold to pressure applied to hind paw of to 50 mmHg at 50 mg/kg, sc. Format: functional, organism-based. More on the design: dose 50 mg/kg.
The test system of data set [9] is Rattus norvegicus. Briefly: Analgesic activity in rat assessed as ability to prolong reaction time at 3 mg/kg, sc by tail-flick assay. Format: functional, organism-based. More on the design: dose 3 mg/kg.
Data set [10] has as its system Rattus norvegicus. The data set is described as follows: Analgesic activity in rat assessed as ability to prolong reaction time at 3 mg/kg, sc by tail-flick assay in presence of 10 mg/kg, sc naloxone. It counts as functional, organism-based.
Where [11] appears, read: Rattus norvegicus, sc, read-out: ED50.

Active and inactive are the calls of the source. Some results are limits rather than exact numbers.

Take `CN1CC2C3CN(C)C4CC3(C(=O)Cc3ccccc3)C1CC24C(=O)CC1CCCCC1` (configuration not stated): in the data set with Rattus norvegicus [1] (setting [11]), the 50% effective dose (ED50) is 10.1 mg/kg.
On to `O=C(Cc1ccccc1)C12CC3NCC1C1CNC2CC31C(=O)Cc1ccccc1`, for which, in the data set with Rattus norvegicus [1] (setting [11]), the ED50 is more than 81 mg/kg.
Regarding `CN1CC2C3CNC4CC3(C(=O)Cc3ccccc3)C1CC42C(=O)Cc1ccccc1` (configuration not stated), the median effective dose (ED50) with Rattus norvegicus [1] (setting [11]) was 45 mg/kg.
With `CCN1CC2C3CN(CC)C4CC3(C(=O)Cc3ccccc3)C1CC24C(=O)Cc1ccccc1`, the ED50 in the data set on Rattus norvegicus [1] (setting [11]) was 41.1 mg/kg.
With `C=CCN1CC2C3CN(CC=C)C4CC3(C(=O)Cc3ccccc3)C1CC24C(=O)Cc1ccccc1`, in the data set with Rattus norvegicus [1] (setting [11]), the ED50 was more than 81 mg/kg.
As to `CCN1CC2C3CN(C)C4CC3(C(=O)Cc3ccccc3)C1CC24C(=O)Cc1ccccc1` (configuration not stated), the ED50 with Rattus norvegicus [1] (setting [11]) was 29.9 mg/kg.
Consider `C=CCN1CC2C3CN(C)C4CC3(C(=O)Cc3ccccc3)C1CC24C(=O)Cc1ccccc1` (configuration not stated), for which the ED50 in the data set on Rattus norvegicus [1] (setting [11]) was more than 80 mg/kg. The result in the data set on Rattus norvegicus [2] was inactive.
With `CN1CC2C3CN(C)C4CC3(C(=O)CC3CCCCC3)C1CC24C(=O)CC1CCCCC1`, the ED50 in the data set with Rattus norvegicus [1] (setting [11]) was more than 81 mg/kg.
`CC(C)=CCN1CC[C@]2(C)c3cc(O)ccc3C[C@H]1[C@H]2C`: the outcome in the data set with Rattus norvegicus [3] was Active.
For the compound `CN1CC2C3CN(C)C4CC3(C(=O)Cc3ccccc3)C1CC24C(=O)Cc1ccccc1` (racemic) [listing 1 of 2 here], the “Ratio ED50” value with Rattus norvegicus [4] was 1.5. Also, the Activity entry in the data set filed under Rattus norvegicus [5], in the data set filed under Rattus norvegicus [6] and in the data set listed under Rattus norvegicus [7] was “Toxic” in each case. Also, the ED50 in the data set with Rattus norvegicus [1] is 1 mg/kg.
Turning to `CN1CC2C3CN(C)C4CC3(C(=O)Cc3ccccc3)C1CC24C(=O)Cc1ccccc1` (racemic) [listing 2 of 2 here], the result in the data set with Rattus norvegicus [8] and with Rattus norvegicus [9] was Active. The result with Rattus norvegicus [10] was inactive.
With `CN1CC2C3CN(C)C4CC3(C(=O)Cc3ccccc3)C1CC24C(=O)Cc1ccccc1` (single isomer, unassigned; (+)), in the data set on Rattus norvegicus [1], the ED50 was more than 80 mg/kg.
Regarding `CN1CC2C3CN(C)C4CC3(C(=O)Cc3ccccc3)C1CC24C(=O)Cc1ccccc1` (single isomer, unassigned; (-)), the “Ratio ED50” value with Rattus norvegicus [4] is 3. The ED50 in the data set with Rattus norvegicus [1] is 0.6 mg/kg.
Take `CN1CC[C@]23c4c5ccc(O)c4O[C@H]2[C@@H](O)C=C[C@H]3[C@H]1C5` [MORPHINE]: in the data set on Rattus norvegicus [1] (setting [11]), the ED50 was 1.5 mg/kg.
